In assay [1] the test system is MDA-MB-453. Put plainly: drug sensitivity score (DSS), single agent (DSS (weighted AUC score)); higher = more sensitive (stronger viability decrease); extreme values may be limits of the assay. As to conditions: BLU9931 0 nM; 72 h. A digest of the protocol:
(§1)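 Cells of the MDA-MB-453 line (2000 per well) were added in medium, with or without 100 nM final FGFR4 inhibitor, to 384-well plates predispensed with FIMM Oncology set compounds at five 10-fold dilutions covering a 10,000-fold range. After 72 h at 37 °C, 5% CO2, CellTiterGlo 2.0 read cellular ATP. Percent viability came from per-plate normalisation to control wells, and the drug sensitivity score was defined as a weighted area under a four-parameter logistic fit.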

Assay [2] concerns MDA-MB-453. Put plainly: drug sensitivity score (DSS), in combination with BLU9931 (DSS (weighted AUC score)); higher = more sensitive (stronger viability decrease); extreme values may be limits of the assay. Conditions: BLU9931 100 nM; 72 h. The essentials: as §1

Results on 19 compounds are retold here after the supplement of paper PMC7224384.

With `Oc1nc(-c2ccc(C(F)(F)F)cc2)nc2c1CSCC2` [XAV-939], the drug sensitivity score was determined as 0.2 in assay [1] and 0.1 in assay [2].

With `COCCOc1cnc2ccn([C@H](C)c3nnc4c(F)cc(-c5cnn(C)c5)cn34)c(=O)c2c1` [AMG-337], the drug sensitivity score in assay [1] and in assay [2] was 0 in each case.

Consider `Cn1c(=O)n(-c2ccc(C(C)(C)C#N)cc2)c2c3cc(-c4cnc5ccccc5c4)ccc3ncc21` [Dactolisib], for which the drug sensitivity score in assay [1] is 16.3; in assay [2], 18.3.

For the compound `C=CC[C@@H]1/C=C(\C)C[C@H](C)C[C@H](OC)[C@H]2O[C@@](O)(C(=O)C(=O)N3CCCC[C@H]3C(=O)O[C@H](/C(C)=C/[C@@H]3CC[C@@H](O)[C@H](OC)C3)[C@H](C)[C@@H](O)CC1=O)[C@H](C)C[C@@H]2OC` [Tacrolimus], the drug sensitivity score in assay [1] amounted to 2.2; in assay [2], 0.8.

In the case of `Cc1sc2c(c1C)C(c1ccc(Cl)cc1)=N[C@@H](CC(=O)NCCCCNC(=O)COc1cccc3c1C(=O)N(C1CCC(=O)NC1=O)C3=O)c1nnc(C)n1-2` (stereo partly drawn) [dBET1], the drug sensitivity score is 12.2 in assay [1] and 13.2 in assay [2].

Turning to `CCCCCCCCCCCCCCCCCCOP(=O)([O-])OC1CC[N+](C)(C)CC1` [Perifosine], the drug sensitivity score in assay [1] and in assay [2] was 0 throughout.

In the case of `COc1ccc(-c2ccc3c(N4CCOC[C@@H]4C)nc(N4CCOC[C@@H]4C)nc3n2)cc1CO` [AZD8055], the drug sensitivity score in assay [1] was determined as 24.3; in assay [2], 23.3.

For the compound `CCC/C=C/C=C/C(=O)O[C@H]1/C(=C/C(=O)OC)C[C@H]2C[C@H]([C@@H](C)O)OC(=O)C[C@H](O)C[C@@H]3C[C@H](OC(C)=O)C(C)(C)[C@](O)(C[C@@H]4C/C(=C/C(=O)OC)C[C@H](/C=C/C(C)(C)[C@]1(O)O2)O4)O3` [Bryostatin 1], the drug sensitivity score amounted to 7.9 in assay [1] and 2.3 in assay [2].

Consider `COc1cc(N2CCN(C)CC2)ccc1Nc1nccc(-c2cn(C)c3cnccc23)n1` [AZ191], for which the drug sensitivity score stood at 1.3 in assay [1] and 1.2 in assay [2].

Regarding `Nc1nc(F)nc2c1ncn2[C@@H]1O[C@H](CO)[C@@H](O)[C@@H]1O` [Fludarabine], the drug sensitivity score in assay [1] and in assay [2] was 0 each time.

In the case of `CCNCCS(=O)(=O)NC[C@@]1(c2ccccc2)SC(NC(=O)C(C)(C)C)=NN1C(=O)C(C)(C)C` [Litronesib], the drug sensitivity score in assay [1] came to 17.3; in assay [2], 13.

`CCn1c(=O)c(-c2ccc(Cl)cc2Cl)cc2cnc(Nc3ccc(N4CCNCC4)c(F)c3)nc21` [FRAX486]: the values for the drug sensitivity score in assay [1] and in assay [2] were 3.9 and 1.1, respectively.

As for `Nc1cc(COc2c(Cl)cc(C[C@H](N)C(=O)O)cc2Cl)c2oc(-c3ccccc3)nc2c1` [JPH203], the drug sensitivity score in assay [1] was 3; in assay [2], 1.4.

As for `C1=N/C2=N/c3ccc(OCCN4CCCC4)c(c3)COC/C=C/COCc3cccc(c3)C(=C1)N2` [Pacritinib], the drug sensitivity score turned out to be 8.3 in assay [1] and 10 in assay [2].

With `Nc1ccn([C@@H]2O[C@H](CO)[C@@H](O)[C@@H]2O)c(=O)n1` [Cytarabine], the drug sensitivity score was 0.8 in assay [1] and 0.1 in assay [2].

`C=CC(=O)N1CCC[C@@H](n2nc(-c3ccc(Oc4ccccc4)cc3)c3c(N)ncnc32)C1` [Ibrutinib]: the drug sensitivity score in assay [1] came out at 14.5; in assay [2], 15.8.

Take `Nc1nc(Nc2ccc3c(c2)CC[C@@H](N2CCCC2)CC3)nn1-c1cc2c(nn1)-c1ccccc1CCC2` [BGB324]: the results for the drug sensitivity score in assay [1] and in assay [2] were 3.2 and 0.2, respectively.

Turning to `CCS(=O)(=O)N1CC(CC#N)(n2cc(-c3ncnc4[nH]ccc34)cn2)C1` [Baricitinib], the drug sensitivity score in assay [1] and in assay [2] was 0 each time.

As to `CCCc1cc(C)[nH]c(=O)c1CNC(=O)c1cc(-c2ccnc(N3CCN(C)CC3)c2)cc2c1cnn2C(C)C` [GSK343], the drug sensitivity score in assay [1] and in assay [2] was 0 in each case.
